These results are taken from PubChem BioAssay (NCI).

Structures are written as SMILES.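 Growth conditions: 96-well plates. Treatment: test compound, 48 hours, 5 concentrations. Analysis: linear interpolation between bracketing concentrations; unreached endpoints set to highest concentration. GI50: concentration for 50% inhibition of growth. Definition used: TGI = concentration required for complete inhibition of growth.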

Experiment in all cases: NCI anticancer screen, dose series, 48 h
For experiment [1], the system named is HCT-116 colon.
The subject of experiment [2] is HL-60(TB) leukemia.
Experiment [3] relates to KM12 colon.
For experiment [4], the system named is MCF7 breast.
The test system of experiment [5] is MDA-MB-435.
The subject of experiment [6] is RPMI-8226 leukemia.
Experiment [7] relates to SK-MEL-5 melanoma.
Experiment [8] relates to SR leukemia.
In experiment [9] the test system is SW-620 colon.
Experiment [10] has as its system T-47D breast.

As for `COc1ccc(C(=O)/C=C/c2ccc(Cl)cc2)cc1S(=O)(=O)Nc1c(N)nc(SC)[nH]c1=O`, the GI50 is 1.56 µM in experiment [1]; 3.2 µM in experiment [2]; 2.09 µM in [3]; 1.97 µM in experiment [4]; 2.95 µM in [5]; 2.17 µM in experiment [6]. In addition, the GI50 in experiment [7] was 2.72 µM; in [8], 3.57 µM; in experiment [9], 2.24 µM; in experiment [10], 2.45 µM. The TGI amounted to 2.94 µM in [1]; 16.1 µM in [2]; 4.51 µM in experiment [3]; 8.25 µM in experiment [4]; 10.7 µM in [5]; 5.97 µM in experiment [6]. Further, the TGI in experiment [7] is 9.59 µM; in [8], greater than 100 µM; in experiment [9], 5.5 µM; in experiment [10] it was 9.83 µM.

`COc1cccc(C2=C(c3cn(C)c4ccccc34)C(=O)NC2=O)c1`: the GI50 in [1] was 7.26 µM; in experiment [2], 11.2 µM; in experiment [3], 8.45 µM; in experiment [4] it was 6.35 µM; in experiment [5], 6.38 µM; in experiment [6] it was 14.1 µM. Further, the GI50 was 4.61 µM in experiment [7], 5.91 µM in experiment [8], 9.13 µM in experiment [9] and 6.82 µM in [10]. For the same compound, the TGI in experiment [1], in experiment [2], in [3], in experiment [4], in [5] and in experiment [6] was greater than 25 µM in each case. In addition, the TGI in experiment [7] was 10.1 µM; in experiment [8], greater than 25 µM; in [9], greater than 25 µM; in experiment [10], greater than 25 µM.
